Laboratory results published in the supplement of paper PMC8671470.

Columns and labels:
Test in all cases: cell viability (% survival relative to DMSO control, bortezomib = 0%); higher = less cytotoxic
Details in all cases: 72 h
[1] = tested on: MOLM-13
How it was run: (§1)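 Fifteen myeloid leukaemia cell lines were exposed to compounds at 1, 10, 100, 1000 or 10000 nM in 384-well plates for 72 h at 37 °C and 5% CO2. Viability was read by CellTiter-Glo luminescence and normalised, with vehicle as 100% and a 10 µM positive control as 0%. Values are percent survival averaged over duplicates.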

[2] = tested on: KG-1
How it was run: as §1

[3] = tested on: MV4-11
How it was run: as §1

[4] = tested on: THP-1
How it was run: as §1

SMILES	cell viability ([1]; 1 nM) [%]	cell viability ([1]; 10 nM) [%]	cell viability ([1]; 100 nM) [%]	cell viability ([1]; 1000 nM) [%]	cell viability ([1]; 10000 nM) [%]	cell viability ([2]; 1 nM) [%]	cell viability ([2]; 10 nM) [%]	cell viability ([2]; 100 nM) [%]	cell viability ([2]; 1000 nM) [%]	cell viability ([2]; 10000 nM) [%]	cell viability ([3]; 1 nM) [%]	cell viability ([3]; 10 nM) [%]	cell viability ([3]; 100 nM) [%]	cell viability ([3]; 1000 nM) [%]	cell viability ([3]; 10000 nM) [%]	cell viability ([4]; 1 nM) [%]	cell viability ([4]; 10 nM) [%]	cell viability ([4]; 100 nM) [%]	cell viability ([4]; 1000 nM) [%]	cell viability ([4]; 10000 nM) [%]
CN(C)C(=O)[C@H](O)[C@H](Cc1ccccc1)NC(=O)c1cc2cc(Cl)ccc2[nH]1	97.6	98.6	101	123	88.1	102	93.9	95.2	114	80.3	97.9	83.8	98.4	102	68.6	96.3	95.8	103	104	91.8
COc1ccc(CNC(=O)Nc2ncc([N+](=O)[O-])s2)cc1	99.8	108	97.8	102	105	90.5	146	93.8	94.8	173	101	99.1	108	94.7	90.6	101	101	104	105	99.1
O=C(O)C[C@@]1(O)C[C@@H](CCCCCCc2ccc(Cl)cc2Cl)OC1=O	102	103	110	103	110	100	110	99.4	112	97.9	95.3	86.1	90.5	102	98.4	103	97	103	99.7	90.3
O=C(NCCCCCCNC(=O)ONC1=CCCCC1)ONC1=CCCCC1	118	97	109	98.7	86	90.4	122	114	92.8	90.4	91.1	104	106	100	96.3	89.4	114	109	97.4	100
CCCCCCCCCCCC(=O)c1c(O)c(C(=O)CCCCCCCCCCC)c(O)c(C2CC(c3ccc(O)cc3)Oc3cc(O)ccc32)c1O (stereo not given)	101	119	89.5	99.1	82.9	101	117	128	101	81.8	95.9	115	101	98.5	90.1	101	114	107	104	102
CCOP(=O)(OCC)C(=Cc1cc(C(C)(C)C)c(O)c(C(C)(C)C)c1)P(=O)(OCC)OCC	76	81.8	122	88.9	86.5	96.3	91.2	121	91.2	67	94.2	90.7	117	104	82	96.7	98.1	115	83.9	85.1
COc1ccc(-c2ccccc2)cc1NS(=O)(=O)c1cc(Cl)cc(Cl)c1O	101	117	113	81	111	98.1	96.4	108	83.8	99.2	98.8	96.1	117	86.3	98.3	101	98.4	101	85.5	99.9
O=C(O)c1cc(Cl)cc(Cl)c1O [3,5-Dichlorosalicylic Acid]	92	112	83.9	110	91.7	107	107	85.6	117	96.8	96	106	91.3	104	88.3	95.3	93.3	87.7	96.7	98.8
O=C(O)C(=O)CBr [3-bromopyruvic acid]	95	97.4	89.2	93.8	122	94.9	93.3	111	96	106	93.7	94.7	88.4	101	99.8	106	85	105	93.4	107
NS(=O)(=O)c1ccc([N+](=O)[O-])cc1 [4-Nitrobenzenesulfonamide]	91.3	92.3	95.4	110	107	107	101	92.4	96.1	92.3	102	93.4	115	94.3	114	111	101	100	104	90.7
Cc1ccccc1C(C(=O)NC1CCCCC1)N(C(=O)Cn1ccnc1C)c1cccc(F)c1 (stereo not given) [AGI-5198]	87	124	108	80	118	102	100	128	94.9	94.5	94	102	91.5	91.4	115	96.9	100	107	101	100
CC(C)(C#N)c1cc(Cn2cncn2)cc(C(C)(C)C#N)c1 [Anastrozole]	97.4	90.8	88.2	104	103	98.4	97.2	103	92	93.8	116	99.4	92.9	87.8	96.4	102	93.4	99.8	99.9	96.3
COc1ccc(S(=O)(=O)N2CCN(S(=O)(=O)c3ccc4c(c3)OCCO4)CC2)cc1 [BML283]	96.4	81.7	100	113	97.8	92.7	105	99	109	105	103	93.6	89	94.1	101	98.5	103	99.3	98.9	103
O=c1cc(-c2ccccc2)oc2cc(O)c(O)c(O)c12 [Baicalein]	97.4	72	132	92.1	69.3	96.9	96.7	112	87.8	51	97.8	102	98.7	113	54	99.4	95.6	93.5	92.5	85.9
O=c1oc2c(O)c(O)cc3c(=O)oc4c(O)c(O)cc1c4c23 [Benzoaric Acid]	92.9	99.6	96	92.9	110	103	107	96.6	90.4	120	107	90.5	98.8	94.2	97.2	102	97.3	94.3	99.4	100
O=C(O)CCCCC(CCSCc1ccccc1)SCc1ccccc1 (stereo not given) [CPI-613]	93.6	99	98.5	75.5	94.5	92.4	99.7	103	96.5	93.6	107	90.5	96.6	93	105	102	90.1	96.2	93.7	97.3
CC(C)c1cc2c(c(O)c1O)[C@@]1(C(=O)O)CCCC(C)(C)[C@@H]1CC2 [Carnosic acid]	101	120	84.7	124	106	92.4	96	96	104	103	98.5	103	93.5	91.7	79.9	98.3	101	109	83.9	66.9
CCN(CC)CCCC(C)Nc1ccnc2cc(Cl)ccc12 (stereo not given) [Chloroquine]	103	81.8	112	107	101	112	101	89.7	102	88.1	108	93.7	105	104	90.5	108	101	101	98.7	98.5
NCCCC(N)(C(=O)O)C(F)F (stereo not given) [Difluoromethylornithine]	87.2	103	93.3	107	101	96.1	88.8	90.8	95.1	105	93.8	98.9	81.3	85.5	109	96.5	95.6	98.9	100	104
CCCc1cc(-c2nc(-c3ccc(C)cc3)cs2)ccn1 [Fatostatin]	89.2	78.1	106	108	104	102	99.8	106	90.3	23.1	105	95.9	93.2	98.2	65.7	95.2	90.1	108	98.5	81.1
Cl.NC(CCC(=O)Nc1ccc([N+](=O)[O-])cc1)C(=O)O (stereo not given) [GPNA]	101	99.6	109	98.2	134	112	115	95.9	102	108	117	93.5	100	99.5	124	106	101	101	102	104
CC(C)c1onc(-c2c(Cl)cccc2Cl)c1COc1ccc(/C=C/c2cccc(C(=O)O)c2)c(Cl)c1 [GW4064]	147	108	93.8	86.7	-0.111	85.6	81.5	95.8	76.8	51.2	110	107	78.6	68.2	6.8	88.8	92.3	91.5	90.5	54.6
CC1(C)[C@@H](O[C@H]2O[C@H](C(=O)O)[C@@H](O)[C@H](O)[C@H]2O[C@@H]2O[C@H](C(=O)O)[C@@H](O)[C@H](O)[C@H]2O)CC[C@]2(C)[C@H]3C(=O)C=C4[C@@H]5C[C@@](C)(C(=O)O)CC[C@]5(C)CC[C@@]4(C)[C@]3(C)CC[C@@H]12 [Glycyrrhizin]	70.1	91.4	133	79.3	92.3	90	108	114	101	106	89	108	108	85.3	102	92.1	103	95.8	98.4	96.2
Nc1ccccc1C(=O)C[C@H](N)C(=O)O [L-Kynurenine]	86.5	93.2	100	97.7	66.1	103	89.4	92.8	102	96.7	108	103	93.1	101	89.4	97	93.1	101	102	102
N/C(=N\CCCC(N)C(=O)O)N[N+](=O)[O-] [L-NNA]	102	73.6	92.4	98	88.4	89.2	93.7	96.3	92.6	89.8	96.4	103	106	103	107	98.1	105	96.9	93	91.1
CC[C@H](C)C(=O)O[C@H]1C[C@@H](C)C=C2C=C[C@H](C)[C@H](CC[C@@H]3C[C@@H](O)CC(=O)O3)[C@H]21 [Lovastatin]	86.4	85.7	83.8	87.4	74.7	98.7	93.3	107	96.3	90.2	97.6	97.3	106	93.5	93.2	98.1	88.8	100	97.3	98.6
